Measurements as given in patent EP3319936B1, “BRIDGE LINKERS FOR CONJUGATION OF CELL-BINDING MOLECULES” (priority 2015, dated 2015).

Experiments:
N87 cell (Ag+) = experiment: In vitro cytotoxicity (MTT) assay, N87 cells; format: cell-based, human
Method: (§1) The cell lines used in the cytotoxicity assays were HL-60, a human promyelocytic leukemia cell line; NCI-N87, a human gastric carcinoma cell line; and SKOV3, a human ovarian carcinoma cell line. […] For SKOV3 cells, the cells were grown in McCoy's 5A Medium with 10% FBS. To run the assay, the cells (180 µl, 6000 cells) were added to each well in a 96-well plate and incubated for 24 hours at 37°C with 5% CO2. Next, the cells were treated with test compounds (20 µl) at various concentrations in appropriate cell culture medium (total volume, 0.2 mL). The control wells contain cells and the medium but lack the test compounds. The plates were incubated for 120 hours at 37°C with 5% CO2. MTT (5mg/ml) was then added to the wells (20 µl) and the plates were incubated for 1.5hr at 37°C. The medium was carefully removed and DMSO (180 µl) was added afterward. […] The inhibition% was calculated according to the following equation: inhibition% = [1-(assay-blank)/(control-blank)] × 100.

SK-OV-3 cell (Ag+) = experiment: In vitro cytotoxicity (MTT) assay, SK-OV-3 cells; format: cell-based, human
Method: as §1

HL60 cell (Ag-) = experiment: In vitro cytotoxicity (MTT) assay, HL60 cells; format: cell-based; settings: HL-60 human promyelocytic leukemia cell line, 120 hours incubation
Method: as §1

For T-DM1, which IC50 (N87 cell (Ag+); NCI-N87 human gastric carcinoma cell line, 120 hours incubation, MTT) is on record?
Its IC50 is 0.266 nM.

What about the “Specificity for N87 cell” value (N87 cell (Ag+); matches ratio of HL60 (Ag-) IC50 bound to N87 IC50) of the same substance?
The value was “over 56”.

And the IC50 (SK-OV-3 cell (Ag+); SKOV3 human ovarian carcinoma cell line, 120 hours incubation, MTT)?
Its IC50 is 0.177 nM.

What about the “Specificity for SK-OV-3 cell” value (SK-OV-3 cell (Ag+); matches ratio of HL60 (Ag-) IC50 bound to SK-OV-3 IC50) of the same substance?
Its value is “over 84”.

And the IC50 (HL60 cell (Ag-))?
Its IC50 is over 15 nM.
